Experimental data: patent publication US20140121272A1, “DEODORIZATION OF PEROXYCARBOXYLIC ACIDS USING CHAOTROPIC AGENTS” (ECOLAB USA INC., priority 2012, published 2014)

Assay: pH of Oxonia Active after addition of the additive
Assay type: physicochemical
Conditions: for effect of the additive on the product's pH: Oxonia Active; for pH: additive dissolved in Oxonia Active
Procedure: The ability to remove odor from a concentrated peracetic acid product was evaluated. Oxonia Active is a concentrated peracetic acid product available from Ecolab, Inc. (St. Paul, Minn.). The commercial product has about 6% peracetic acid and 22% hydrogen peroxide.
Urea was dissolved into the Oxonia Active at various molar ratios to the peracetic acid level and the resulting effect on the product's odor was observed.

| Molecule | effect of the additive on the product's pH | pH (molar POAA/additive 0.5/1) | pH (molar POAA/additive 1/0.50) | pH (molar POAA/additive 1/1) | pH (molar POAA/additive 1/0.25) |
| --- | --- | --- | --- | --- | --- |
| Ammonium carbonate | raised the pH | 7.00 | 3.64 | 5.90 |  |
| NC(N)=O [Urea] | did not significantly change | 1.38 | 1.10 | 1.16 | 1.10 |
